In patent publication US12295997B2, “Prostate neoantigens and their uses” (Janssen Biotech, Inc., priority 2020, dated 2025):

Tested on: CD8+ and CD4+ T cells (autologous CD3+ Pan-T cells isolated from human normal PBMCs)
Experiment: Exogenous autologous normal donor restimulation assay (15-mer overlapping peptide pools on CD1c+ dendritic cells, TNFα/IFNγ flow cytometry)
Format: cell-based
Details: 15-mer overlapping peptide pool; for Max. Fold Change over background CD4+ TNFαINFγ double positive DP / Max. Fold Change over background CD8+ TNFαINFγ double positive DP / Max. Frequency of CD4+ TNFαINFγ DP / Max. Frequency of CD8+ TNFαINFγ DP: Table 28, additional neoantigens, highest across normal donors; for Maximum Fold Change Over Background CD4+ cells / Maximum Fold Change Over Background CD8+ cells / Maximum Frequency of TNFα/IFNγ Double Positive CD4+ T cells / Maximum Frequency of TNFα/IFNγ Double Positive CD8+ T cells: Table 25; for Maximum Fold Change Over Background CD4+ cells: TNFα+IFNγ+ CD4+ T cells; for Maximum Fold Change Over Background CD4+ cells / Maximum Fold Change Over Background CD8+ cells: highest fold change over negative control across normal donors; for Maximum Fold Change Over Background CD8+ cells: TNFα+IFNγ+ CD8+ T cells; for Maximum Frequency of TNFα/IFNγ Double Positive CD4+ T cells / Maximum Frequency of TNFα/IFNγ Double Positive CD8+ T cells: highest frequency across normal donors
Procedure: CD1c+ Dendritic Cells (DC) isolated from human normal PBMCs were thawed using media (IMDM (Gibco) supplemented with glutamine, HEPES, 5% human serum (Sigma), and 1× Pen-Strep). DC cells were resuspended in media supplemented with IL-4 (Peprotech, 80 ng/mL) and GM-CSF (Gibco, 80 ng/mL), plated in 6 well microplates, and rested overnight at 37° C. (5% CO2). The following day, DC cells were counted and plated in a 96 well round bottom microplate at a concentration of 30,000 viable cells per well. Lyophilized peptides (15-mer overlapping peptides) were solubilized in 100% DMSO and pooled by neoantigen to between 5 mg/mL and 20 mg/mL. Neoantigen peptides pools were added to DCs for a final concentration of […] and rested for 2 hours at 37° C. (5% CO2). CEF Peptide Pool “Plus” (Cellular Technologies, Ltd.) was utilized as a positive control and DMSO at the same final concentration as the experimental peptides was utilized as a negative control. After 2 hours, DC cells were irradiated with 50 gray of ionizing radiation. Autologous CD3+ Pan-T cells isolated from human normal PBMCs were thawed using media. Following irradiation, autologous Pan-T cells were added to the irradiated DCs at 300,000 viable cells per well. Human IL-15 (Peprotech) was added to all wells at final concentration of 10 ng/mL.
Plates were incubated at 37° C. (5% CO2) for a total of 12 days. Media was refreshed every 2-3 days with IL-15 (10 ng/mL final concentration) and IL-2 (R&D systems, 10 IU/mL final concentration). On day 11 cells were re-stimulated with identical experimental peptide pools or controls, at same concentration as peptide stimulation on Day 1. Protein Inhibitor Cocktail (eBioscience) was added to every well and plate was incubated overnight at 37° C. (5% CO2).
On day 12, cells were stained for intracellular flow cytometry analysis. The cells were washed with PBS and stained with Live/Dead Fixable Aqua Dead Cell stain (Thermo-Fisher). Following the live/dead stain, cells were blocked using Biotin-Free Fc Receptor Blocker (Accurate Chemical & Scientific Corp). Extracellular cellular flow panel (1 μL/antibody per well in 50 μL) consisted of CD3 PerCP-Cy5.5 (Biolegend), CD4 BV421 (Biolegend), and CD8 APC-Cy7 (Biolegend). After extracellular staining, cells were fixed using Foxp3/fTranscription Factor Staining Buffer Set (eBioscience) and stained for intracellular proteins (1:50 dilution) using TNFα FITC (R&D Systems) and IFNγ BV785 (Biolegend). Cells were washed and resuspended in stain buffer and analyzed using a BD Celesta flow cytometer.
Flow cytometry cell staining analysis was completed using FlowJo v10. Cells were gated on live, singlet, CD3+ cells. The CD8+ and CD4+ T cells were analyzed for TNFα/IFNγ expression and the frequency of double positive TNFα/IFNγ CD8+ and the frequency of double positive TNFα/IFNγ CD4+ T cells were recorded. Responses were assessed to be positive when the frequency of double positive TNFα/IFNγ CD8+ or TNFα/IFNγ CD4+ T cells due to stimulation with an experimental peptide pool was increased greater than or equal to 3-fold over the DMSO only negative control for that donor and at least 0.01%.
Overlapping 15-mer peptides were designed to span each neoantigen incorporated into NeoGAd20 and NeoMVA to assess their ability to activate T cells using the exogenous autologous normal donor restimulation assay described in Example 1 as pools using TNFα and IFNγ production by CD8^+ and CD4^+ T cells as a readout.
Immunogenicity of various additional identified neoantigens was assessed. Overlapping 15-mer peptides were designed to span each neoantigen similarly to what was done in Example 11 to assess their ability to activate T cells using the exogenous autologous normal donor restimulation assay described in Example 1 as pools using TNFα and IFNγ production by CD8^+ and CD4^+ T cells as a readout.

Sequence | Max. Fold Change over background CD4+ TNFαINFγ double positive DP | Max. Fold Change over background CD8+ TNFαINFγ double positive DP | Max. Frequency of CD4+ TNFαINFγ DP | Max. Frequency of CD8+ TNFαINFγ DP | Maximum Fold Change Over Background CD4+ cells | Maximum Fold Change Over Background CD8+ cells | Maximum Frequency of TNFα/IFNγ Double Positive CD4+ T cells | Maximum Frequency of TNFα/IFNγ Double Positive CD8+ T cells
AGAGTISEGSVLHGQRLECDARRFFGCGTTILAEWEHH (listed as Homo sapiens) [AS59, ACSL3 alternative splicing] | 59.58 | 4.22 | 0.3 | 0.08 | – | – | – | –
ANLKGTLQVRSGQAVSPR (listed as Homo sapiens) [AS21, RECQL4 alternative splicing] | 1.7 | 3.81 | 0.07 | 0.12 | – | – | – | –
CEERGAAGSLISCE (listed as Homo sapiens) [FUS6, TMPRSS2->ERG gene fusion] | – | – | – | – | 2.27 | 3.50 | 0.016 | 0.056
CGASACDVSLIAMDSA (listed as Homo sapiens) [FUS1, SLC45A3->ELK4 gene fusion] | – | – | – | – | 8.33 | 1.94 | 0.100 | 0.031
DCMLSEEGGQARRGGSLCSLAAHTIASAARGRFLSRLSNFCAVVKASRGAPSCTWE (listed as Homo sapiens) [AS40, LRRC45 alternative splicing] | 15.34 | 178.52 | 0.89 | 2.41 | – | – | – | –
DGFSGSLFAVVTRRCYFLKWRTIFPQSLMWL (listed as Homo sapiens) [FUS18, OPN3->CHML gene fusion] | 31.76 | 42.33 | 0.04 | 0.91 | – | – | – | –
DGHSYTSKVNCLLLQDGFHGCVSITGAAGRRNLSIFLFLMLCKLEFHA (listed as Homo sapiens) [AS55.1, SPOCK1 alternative splicing] | 20.66 | 25.26 | 0.08 | 1.47 | – | – | – | –
DLRRVATYCAPLPSSWRPGTGTTIPPRMRSC (listed as Homo sapiens) [FUS23, NUDT14->JAG2 gene fusion] | 12.77 | 11.05 | 0.12 | 0.62 | – | – | – | –
DYWAQKEKGSSSFLRPSC (listed as Homo sapiens) [AS7, ACSM1 alternative splicing] | – | – | – | – | 2.50 | 52.60 | 0.045 | 2.630
DYWAQKEKISIPRTHLC (listed as Homo sapiens) [AS6, ACSM1 alternative splicing] | – | – | – | – | 31.67 | 6.50 | 0.380 | 0.078
EAFQRAAGEGGPGRGGARRGARVLQSPFCRAGAGEWLGHQSLR (listed as Homo sapiens) [AS41, RHPN1 alternative splicing] | – | – | – | – | 2.20 | 190.60 | 0.022 | 9.530
ENASLVFTGSNSPIPACELSSHPAHGISPWIPSPGNEHFHGIKKQVKAIKVE (listed as Homo sapiens) [AS48, SYT17 alternative splicing] | 13.45 | 9.21 | 0.13 | 0.29 | – | – | – | –
ENSGNASRWLHVPSSSDDWLGWKKSSAITSNS (listed as Homo sapiens) [AS50, LRIF1 alternative splicing] | 17.22 | 1.6 | 0.07 | 0.12 | – | – | – | –
FARKMLEKVHRQHLQLSHNSQE (listed as Homo sapiens) [AS12, EVPL alternative splicing] | 7.32 | 6.03 | 0.28 | 0.19 | – | – | – | –
FKKFDGPCGERGGGRTARALWARGDSVLTPALDPQTPVRAPSLTRAAAAV (listed as Homo sapiens) [AS47, AGRN alternative splicing] | – | – | – | – | 2.58 | 4.80 | 0.031 | 0.240
FMIGELVGELCCQLTFRLPFLESLCQAVVTQALRFNPSFQEVCIYQDTDLM (listed as Homo sapiens) [AS2, SLC30A4 alternative splicing] | 110.68 | 5.06 | 0.86 | 0.09 | – | – | – | –
FVQGKDWGLKKFIRRDF (listed as Homo sapiens) [Neoantigen M10, SPOP F133L] | – | – | – | – | 14.14 | 1.89 | 0.1 | 0.09
FVQGKDWGVKKFIRRDF (listed as Homo sapiens) [Neoantigen M12, SPOP F133V] | – | – | – | – | 8.94 | 6.67 | 0.05 | 0.12
GEVELSEGGEGQRHLAFPWACSGPGWRGVCCAAVEPA (listed as Homo sapiens) [AS32, TONSL alternative splicing] | 2.04 | 3.81 | 0.08 | 0.12 | – | – | – | –
